Data on 11 compounds can be found in PubChem BioAssay AID328 (DTP/NCI, 2004).

The experiment relates to BDF1 mice, P388 leukemia ip, median survival T/C. In words: NCI In Vivo Anticancer Drug Screen. Data for tumor model P388 Leukemia (intraperitoneal) in B6D2F1 (BDF1) mice. Conditions: endpoint: median survival time, higher = longer survival. The essentials:
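Each value expresses how treatment altered survival: treated-mouse outcome over vehicle-mouse outcome, both groups bearing the transplanted tumour.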

The mark [1] stands for this setting: dose: 200.0 mg/kg/injection, schedule: Q01DX009 (ip), vehicle: Klucel (hydroxypropylcellulose) (HPC).
Where [2] appears, read: dose: 400.0 mg/kg/injection, schedule: Q01DX009 (ip), vehicle: Klucel (hydroxypropylcellulose) (HPC).
Setting [3] is: dose: 50.0 mg/kg/injection, schedule: Q01DX009 (ip), vehicle: saline with Tween-80.
Setting [4] is: dose: 100.0 mg/kg/injection, schedule: Q01DX009 (ip), vehicle: saline with Tween-80.
Setting [5] is: dose: 50.0 mg/kg/injection, schedule: Q04DX003 (ip), vehicle: saline with Tween-80.
Setting [6] is: dose: 100.0 mg/kg/injection, schedule: Q04DX003 (ip), vehicle: Klucel (hydroxypropylcellulose) (HPC).

Values joined by “and” are separate entries in the source; they are usually repeats but may differ in a detail not shown here. Identical values can stand only once. Inconclusive results and toxic doses are left out. Residues, ends and D or L forms follow the SMILES beside them. *: point of attachment. Cbz = O=C(OCc1ccccc1)*; Bn = c1ccc(C*)cc1

Turning to `O=C1OC(c2ccccc2)(c2ccccc2)c2ccccc21`, the T/C by setting is: (dose: 45.0 mg/kg/injection, schedule: Q01DX009 (ip), vehicle: Klucel (hydroxypropylcellulose) (HPC)) 100 % of control; (dose: 65.0 mg/kg/injection, schedule: Q01DX009 (ip), vehicle: Klucel (hydroxypropylcellulose) (HPC)) 90 % of control; (dose: 150.0 mg/kg/injection, schedule: Q01DX009 (ip), vehicle: Klucel (hydroxypropylcellulose) (HPC)) 90 % of control; under setting [1], 90 % of control; under setting [2], 86 % of control.
Turning to `CCCn1/c(=N\N=O)sc2ccccc21`, the T/C (dose: 50.0 mg/kg/injection, schedule: Q04DX003 (ip), vehicle: saline sonified) was 100 % of control; the T/C (dose: 100.0 mg/kg/injection, schedule: Q04DX003 (ip), vehicle: saline sonified) was 100 % of control; the T/C (dose: 200.0 mg/kg/injection, schedule: Q04DX003 (ip), vehicle: saline sonified) was 95 % of control.
As for `c1ccc([P+](c2ccccc2)(c2ccccc2)c2ccccc2)cc1`, the T/C runs as follows: (dose: 0.06 mg/kg/injection, schedule: Q01DX009 (ip), vehicle: saline) 116 % of control; (dose: 0.09 mg/kg/injection, schedule: Q01DX009 (ip), vehicle: saline) 122 % of control; (dose: 0.13 mg/kg/injection, schedule: Q01DX009 (ip), vehicle: saline) 100 % of control; (dose: 0.2 mg/kg/injection, schedule: Q01DX009 (ip), vehicle: saline) 100 % of control; (dose: 0.3 mg/kg/injection, schedule: Q01DX009 (ip), vehicle: saline) 104 % of control; (dose: 0.4 mg/kg/injection, schedule: Q01DX009 (ip), vehicle: saline) 150 % of control. The T/C reads like this: (dose: 0.41 mg/kg/injection, schedule: Q01DX009 (ip), vehicle: saline) 165 % of control; (dose: 0.44 mg/kg/injection, schedule: Q01DX009 (ip), vehicle: saline) 120 % of control; (dose: 0.62 mg/kg/injection, schedule: Q01DX009 (ip), vehicle: saline) 150 % of control and 163 % of control and 170 % of control; (dose: 0.66 mg/kg/injection, schedule: Q01DX009 (ip), vehicle: saline) 171 % of control; (dose: 0.67 mg/kg/injection, schedule: Q04DX003 (ip), vehicle: saline) 118 % of control; (dose: 0.93 mg/kg/injection, schedule: Q01DX009 (ip), vehicle: saline) 150 % of control and 165 % of control. Besides, the T/C (dose: 1.0 mg/kg/injection, schedule: Q01DX009 (ip), vehicle: Klucel (hydroxypropylcellulose) (HPC)) is 155 % of control; the T/C (dose: 1.0 mg/kg/injection, schedule: Q01DX009 (ip), vehicle: saline) was 180 % of control; the T/C (dose: 1.35 mg/kg/injection, schedule: Q04DX003 (ip), vehicle: saline) was 122 % of control; the T/C (dose: 1.5 mg/kg/injection, schedule: Q01DX009 (ip), vehicle: Klucel (hydroxypropylcellulose) (HPC)) was 158 % of control; the T/C (dose: 1.5 mg/kg/injection, schedule: Q01DX009 (ip), vehicle: saline) was 154 % of control and 164 % of control; the T/C (dose: 2.0 mg/kg/injection, schedule: Q01DX009 (ip), vehicle: Klucel (hydroxypropylcellulose) (HPC)) was 157 % of control and 163 % of control. Also, the T/C is 164 % of control (dose: 2.25 mg/kg/injection, schedule: Q01DX009 (ip), vehicle: saline); 175 % of control (dose: 3.2 mg/kg/injection, schedule: Q01DX009 (ip), vehicle: Klucel (hydroxypropylcellulose) (HPC)); 164 % of control (dose: 4.0 mg/kg/injection, schedule: Q01DX009 (ip), vehicle: Klucel (hydroxypropylcellulose) (HPC)); 158 % of control and 165 % of control (dose: 4.0 mg/kg/injection, schedule: Q04DX003 (ip), vehicle: saline); 89 % of control and 100 % of control (dose: 7.5 mg/kg/injection, schedule: Q01DX009 (ip), vehicle: Klucel (hydroxypropylcellulose) (HPC)).
In the case of `N#CC1=C(N)CCC2(C1)c1ccccc1-c1ccccc12`, the T/C by setting is: under setting [3], 103 % of control; under setting [4], 88 % of control; (dose: 200.0 mg/kg/injection, schedule: Q01DX009 (ip), vehicle: saline with Tween-80) 96 % of control.
In the case of `COC(=O)Nc1cccc(NC(=O)C(=O)O)c1`, the T/C is 100 % of control under setting [5] and 100 % of control (dose: 100.0 mg/kg/injection, schedule: Q04DX003 (ip), vehicle: saline with Tween-80).
With `COc1cc([N+](=O)[O-])cc(C=O)c1OC(=O)c1ccccc1`, the T/C is, setting by setting: under setting [3], 109 % of control; under setting [4], 123 % of control.
For `CC(C)CC(NC(=O)C1CCCN1C(=O)C(CSCc1ccccc1)NC(=O)C(CC(N)=O)NC(=O)C(CCC(N)=O)NC(=O)OCc1ccccc1)C(=O)NCC(N)=O` (centres undefined) (Cbz-QNC(Bn)PLG-NH2; configuration not given here), the T/C under setting [6] is 105 % of control; the T/C (dose: 200.0 mg/kg/injection, schedule: Q04DX003 (ip), vehicle: Klucel (hydroxypropylcellulose) (HPC)) is 102 % of control; the T/C (dose: 400.0 mg/kg/injection, schedule: Q04DX003 (ip), vehicle: Klucel (hydroxypropylcellulose) (HPC)) is 98 % of control.
For `O=Cc1[nH]c(=O)[nH]c(=O)c1Br`, the T/C under setting [5] is 112 % of control.
In the case of `CCOc1nc(OCC)nc(-c2cccn2-c2ccccc2)n1`, the T/C was 100 % of control (dose: 100.0 mg/kg/injection, schedule: Q01DX001 (ip), vehicle: Klucel (hydroxypropylcellulose) (HPC)); 86 % of control (dose: 100.0 mg/kg/injection, schedule: Q01DX009 (ip), vehicle: Klucel (hydroxypropylcellulose) (HPC)); 104 % of control (dose: 200.0 mg/kg/injection, schedule: Q01DX001 (ip), vehicle: Klucel (hydroxypropylcellulose) (HPC)); 100 % of control under setting [1]; 90 % of control (dose: 400.0 mg/kg/injection, schedule: Q01DX001 (ip), vehicle: Klucel (hydroxypropylcellulose) (HPC)); 104 % of control under setting [2].
Take `NC(CSCc1ccc(N(CCCl)CCCl)cc1)C(=O)O` (centres undefined): the T/C (dose: 1.2 mg/kg/injection, schedule: Q04DX003 (ip), vehicle: Klucel (hydroxypropylcellulose) (HPC)) was 95 % of control; the T/C (dose: 2.6 mg/kg/injection, schedule: Q04DX003 (ip), vehicle: Klucel (hydroxypropylcellulose) (HPC)) was 154 % of control; the T/C (dose: 4.0 mg/kg/injection, schedule: Q01DX009 (ip), vehicle: saline with Tween-80) was 183 % of control; the T/C (dose: 6.0 mg/kg/injection, schedule: Q01DX009 (ip), vehicle: saline with Tween-80) is 206 % of control; the T/C (dose: 6.0 mg/kg/injection, schedule: Q04DX003 (ip), vehicle: Klucel (hydroxypropylcellulose) (HPC)) was 154 % of control; the T/C (dose: 9.0 mg/kg/injection, schedule: Q01DX009 (ip), vehicle: saline with Tween-80) was 223 % of control. In addition, the T/C is 190 % of control (dose: 13.0 mg/kg/injection, schedule: Q04DX003 (ip), vehicle: Klucel (hydroxypropylcellulose) (HPC)); 204 % of control (dose: 20.0 mg/kg/injection, schedule: Q04DX003 (ip), vehicle: Klucel (hydroxypropylcellulose) (HPC)); 272 % of control (dose: 22.0 mg/kg/injection, schedule: Q01DX009 (ip), vehicle: Klucel (hydroxypropylcellulose) (HPC)); 238 % of control and 272 % of control (dose: 30.0 mg/kg/injection, schedule: Q04DX003 (ip), vehicle: Klucel (hydroxypropylcellulose) (HPC)); 231 % of control (dose: 33.0 mg/kg/injection, schedule: Q01DX009 (ip), vehicle: Klucel (hydroxypropylcellulose) (HPC)); 238 % of control (dose: 44.0 mg/kg/injection, schedule: Q04DX003 (ip), vehicle: Klucel (hydroxypropylcellulose) (HPC)). In addition, the T/C was 240 % of control and 250 % of control (dose: 50.0 mg/kg/injection, schedule: Q01DX009 (ip), vehicle: Klucel (hydroxypropylcellulose) (HPC)); 235 % of control and 223 % of control (dose: 67.0 mg/kg/injection, schedule: Q04DX003 (ip), vehicle: Klucel (hydroxypropylcellulose) (HPC)); 104 % of control (dose: 75.0 mg/kg/injection, schedule: Q01DX009 (ip), vehicle: Klucel (hydroxypropylcellulose) (HPC)); 220 % of control under setting [6]; 160 % of control (dose: 150.0 mg/kg/injection, schedule: Q04DX003 (ip), vehicle: Klucel (hydroxypropylcellulose) (HPC)).
In the case of `CC12CCC(CC1)C(C)(C)O2`, the T/C by setting is: (dose: 25.0 mg/kg/injection, schedule: Q01DX009 (ip), vehicle: saline) 106 % of control; (dose: 50.0 mg/kg/injection, schedule: Q01DX009 (ip), vehicle: saline) 117 % of control; (dose: 100.0 mg/kg/injection, schedule: Q01DX009 (ip), vehicle: saline) 106 % of control; (dose: 200.0 mg/kg/injection, schedule: Q01DX009 (ip), vehicle: saline) 107 % of control.
